#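 48-hour exposure; five concentrations; linearly interpolated endpoints. GI50 marks 50% less growth. TGI denotes the concentration required for complete inhibition of growth.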
# Columns and labels:
# Experiment in all cases: NCI tumour cell line growth inhibition, 48 h
# [1] = system: BT-549 breast
# [2] = system: XF 498 CNS
# [3] = system: KM20L2 colon
# [4] = system: HOP-18 NSCLC
# [5] = system: DLD-1 colon
# [6] = system: RXF-631 renal
# [7] = system: MDA-N
# [8] = system: DMS 273 small cell lung
# [9] = system: M19-MEL melanoma
Compound,GI50 [1],TGI [1],TGI [2] [µM],TGI [3] [µM],TGI [5] [µM],TGI [8] [µM],TGI [9] [µM],other results
COc1ccc(-c2n[nH]nc2-c2csc3ccccc23)cc1OC,2.17 µM,12.5 µM,,,,,,
COCCOC(=O)C1=C(C)NC2=C(C(=O)CC(c3ccccc3OC)C2)C1c1cccc(O)c1 (stereo not given),11.7 µM,37.5 µM,,,,,,
CC(=O)OC1CCn2nnc(COC(=O)NC(C)C)c21 (stereo not given),,,> 100,> 100,> 100,,,TGI [4]: > 100 µM; TGI [6]: > 100 µM
CCC(Sc1nnc2c3ccccc3n(CC)c2n1)C(=O)Nc1ccccc1OC (stereo not given),> 100 µM,> 100 µM,,,,,,
O=C1OC(c2ccc(O)c(-c3ccccc3)c2)(c2ccc(O)c(-c3ccccc3)c2)c2c(Cl)c(Cl)c(Cl)c(Cl)c21,,> 100 µM,,,,,,TGI [7]: > 100 µM
O=C(Nc1cc(C(F)(F)F)ccc1F)Nc1n[nH]c2ccccc12,> 100 µM,> 100 µM,,,,,,
Cc1ccc(NC(=O)/C(CC(=O)c2c[n+](=O)c3ccccc3n2O)=N\NC(=O)C[n+]2ccccc2)cc1,,,> 100,> 100,> 100,> 100,> 100,TGI [4]: > 100 µM; TGI [6]: > 100 µM
C=CC1CC12C(=O)C1OC2(C)C2C(=O)c3c(ccc4c3ccc3ccccc34)C(=O)C12 (stereo not given),58.9 µM,> 100 µM,,,,,,
O=C(O)C1C2CC3C(OC(=O)C31)C2Br (stereo not given),,> 100 µM,,,,,,TGI [7]: > 100 µM
CCc1c2c(nc3cc4c(cc13)OCO4)-c1cc3c(c(=O)n1C2)COC(=O)[C@@]3(CC)OC(=O)CN,< 0.01 µM,< 0.0366 µM,,,,,,GI50 [7]: < 0.01 µM; TGI [7]: 2.18 µM
CC(c1ccc(Br)cc1)C(C(=O)O)C(=O)O (stereo not given),,,,> 100,> 100,> 100,> 100,TGI [4]: > 100 µM
CCCCCCCCCCCCCCCc1cc(O)ccc1N,0.305 µM,> 74.7 µM,,,,,,
CC(=O)N1CC2Nc3ccccc3C2CC1CO (stereo not given),,,> 100,> 100,> 100,> 100,> 100,TGI [6]: > 100 µM
O=C1c2ccccc2C(=O)N1c1ccc(S(=O)(=O)Nc2ncccn2)cc1,> 100 µM,> 100 µM,,,,,,
O=C1/C(=C/c2ccccc2Cl)N=C(c2ccccc2)N1Cc1ccco1,39.8 µM,> 100 µM,,,,,,
CCOC(=O)CC1(O)C=CC(=O)C=C1,1.48 µg/mL,3.67 µg/mL,,,,,,GI50 [7]: 2.83 µg/mL; TGI [7]: 7.25 µg/mL
N#Cc1ccccc1C#C/C=C\C#Cc1ccc(OCCCNC(=O)c2cc3ccccc3[nH]2)cc1,20.2 µM,> 100 µM,,,,,,
COc1cc(/C=C/C(C)=O)ccc1OP(=O)(O)O,,> 100 µM,,,,,,TGI [7]: > 100 µM
COc1ccc2c(c1)c(C1(c3cn(C)c4ccc(OC)cc34)C(=O)Nc3ccc(F)cc31)cn2C,10.6 µM,50.8 µM,,,,,,

Compound,GI50 [1],TGI [1],TGI [2] [µM],TGI [3] [µM],TGI [5] [µM],TGI [8] [µM],TGI [9] [µM],other results
O=C(CCC(=O)Nc1ccc(Cl)cc1)CC(=O)c1ccc(F)cc1,,,> 100,> 100,> 100,> 100,,
CCN(CC)CCOc1ccc(/C=C2\CC3C4CCC5=CC(=O)CC[C@]5(C)C4CC[C@]3(C)C2=O)cc1OC (stereo not given in full),5.02 µM,19.7 µM,,,,,,
O=C1CCCC/C1=C/C=C/c1ccccc1,,,> 100,> 100,> 100,,> 100,TGI [4]: > 100 µM; TGI [6]: > 100 µM
O=c1[nH]c(Br)nc2c(Br)c[nH]c12,,,> 100,> 100,> 100,> 100,> 100,TGI [4]: > 100 µM; TGI [6]: > 100 µM
O=c1ccccc2cccc(O)c12,,,> 100,> 100,> 100,> 100,> 100,TGI [4]: > 100 µM; TGI [6]: > 100 µM
COc1ccc2c3c1C(=O)CCC3CO2 (stereo not given),,,> 100,> 100,> 100,> 100,> 100,TGI [6]: > 100 µM
O=C1C=C(Nc2ccccc2C(=O)CC(=O)C(=O)Nc2cccc(C(F)(F)F)c2)c2ccccc2C1=O,,49.1 µM,48.7,> 100,> 37.6,> 94.4,8.48,TGI [7]: 26.7 µM; TGI [4]: 40.6 µM; TGI [6]: > 100 µM
COc1ccc(O)c(C(=O)c2ccc(C(=O)O[C@@H]3CCCNC[C@H]3NC(=O)c3ccncc3)cc2)c1F,0.212 µM,3.36 µM,,,,,,
Brc1ccc([I+]c2ccc(Br)cc2)cc1,2.02 µM,12.3 µM,,,,,,
COc1cc(OC)c2c(=O)c(O)c(-c3ccc(OC)c(OC)c3)oc2c1,,> 100 µM,,,,,,TGI [7]: > 100 µM
CC1=CC(C)(C)N=C2SC(c3ccc(Cl)cc3)=NN12,,,51.8,> 100,58.1,> 100,> 100,TGI [4]: 80.5 µM
CO[C@@H]1[C@@H](OC2OC(C)C(OC3CC(C)(O)C(OC(=O)CC(C)C)C(C)O3)C(N(C)C)C2O)[C@@H](CC=O)C[C@@H](C)C(=O)/C=C/C2O[C@H]2C[C@@H](C)OC(=O)C[C@H]1OC(C)=O (stereo not given in full),,40.5 µM,,,,,,TGI [7]: 29.8 µM
O=C(Nc1ccc(Br)cc1)Nc1n[nH]c2ccccc12,> 100 µM,> 100 µM,,,,,,
CN(C)CCn1c2ccccc2c2nc3cc4ccccc4cc3nc21,,,21.4,15.6,16.5,14.6,21,
CCC[CH2][Sn]([CH2]CCC)([O]C(=O)c1cccc(F)c1)[O]C(=O)c1cccc(F)c1,,,2.04,2.91,2.32,3.4,1.93,GI50 [2]: 0.559 µM; GI50 [8]: 1.39 µM; GI50 [3]: 1.47 µM; GI50 [9]: 0.575 µM; GI50 [5]: 1.11 µM; GI50 [6]: 0.209 µM; TGI [6]: 0.486 µM
O=C(O)/C(=C/c1ccccc1[N+](=O)[O-])c1ccccc1,,,> 100,> 100,> 100,> 100,> 100,TGI [6]: > 100 µM
CCCCCCCCCCCCCCCC(=O)OCC(O)C1OC(=O)C(O)=C1O (stereo not given),,,,,,,,TGI [7]: 94.6 µM
CCOc1ccccc1/C=C1\NC(=O)N(/C=C2\C(=O)Oc3ccccc3C2=O)C1=O,,> 100 µM,,,,,,TGI [7]: > 100 µM
